The values below are quoted from earlier work in US20230218796A1, “Tissue adhesive for use in a treatment method in which an ophthalmological implant is implanted in a human or animal patient, and ophthalmological implantation system” (priority 2020, published 2023).

Series [1] relates to cell growth in the capsular bag.
For series [2], the system named is epithelial cell layer of the cornea. The conditions noted are these: free thapsigargin released into the aqueous humor in the anterior chamber.

In the case of `C/C=C(/C)C(=O)O[C@H]1C(C)=C2[C@H]([C@@H]1OC(=O)CCCCCCC)[C@@](C)(OC(C)=O)C[C@H](OC(=O)CCC)[C@@]1(O)[C@H]2OC(=O)[C@@]1(C)O` [thapsigargin], in series [1] (higher concentrations), the “higher concentration that induces cell death” value is 10 to 100 µM. Besides, the “low concentration that greatly reduces cell growth in the capsular bag” value in series [1] (low concentrations) is 100 nM. In addition, the “damage to the cornea on free release into the aqueous humor in the anterior chamber” value in series [2] was “can damage the epithelial cell layer of the cornea”.
